Reference: patent US4489091A, “Antilipemic and anti-inflammatory compositions containing sulfonate derivatives” (Taiho Pharmaceutical Company Limited, priority 1980, dated 1984)
Where two headings read alike, the source gives them in different places.

Key:
triglycerides = assay: Antilipemic effect: percent triglycerides inhibition in plasma of rats given an olive oil-cholesterol mixture; format: in vivo, male Wistar rats; conditions: for inhibition in vivo at 200 mg/kg: read-out: Anti-lipemic effect, TG (percent triglycerides inhibition), asterisked; for inhibition in vivo at 100 mg/kg: oral 100 mg/kg, read-out: Anti-lipemic effect, TG (percent triglycerides inhibition)
Procedure: (§1) The above compounds of this invention are tested by the following methods for antilipemic effect and acute toxicity. In the column of antilipemic effect in the table, the asterisked values indicate the effect achieved by orally giving 200 mg/kg of the compounds concerned, and the unmarked values, the effect attained by orally giving 100 mg/kg. In the same column, "TG" stands for percent triglycerides inhibition and "CS" percent cholesterol inhibition.
(§2) Seven-week-old male Wistar rats weighing 200 to 220 g are used, 5 rats in each group.
(§3) Each compound of the invention (100 mg or 200 mg) is dissolved in 10 ml of an olive oil-cholesterol mixture (containing 15% of cholesterol). The mixture containing the compound is orally given to the rat with a probe at a dose of 10 ml/kg. Two or 8 hours thereafter, 6 ml of whole blood is withdrawn from the descending aorta of the rat under ether anesthesia with a syringe containing heparin. The blood is centrifuged at 5° C. and 3000 r.p.m. to obtain the plasma. The plasma collected after the lapse of 2 hours is used for determining the triglycerides content, and the plasma obtained 8 hours later for determining the total cholesterol content, using a triglycerides measuring kit (trade mark "Triglycerides-B Test Wako," product of Wako Junyaku Co., Ltd., Japan) and a total cholesterol measuring kit (trade mark "Cholesterol Test Wako," product of the same), respectively. The olive oil-cholesterol mixture containing no compound is similarly given to a control group, while no treatment is conducted for a normal group. The triglycerides and total cholesterol contents in the plasma are also determined for these groups in the same manner as is the case with the test groups.
(§4) The present hyperlipidemia inhibition achieved by the present compound is given by [formula] in which A is the triglycerides (cholesterol) content of the control group, B is the triglycerides (cholesterol) content of the normal group, and C is the triglycerides (cholesterol) content of the group to which the present compound is given.

cholesterol = assay: Antilipemic effect: percent total cholesterol inhibition in plasma of rats given an olive oil-cholesterol mixture; format: in vivo, male Wistar rats; conditions: plasma 8 hours after dosing, Wistar rat; for inhibition in vivo at 100 mg/kg: oral 100 mg/kg, read-out: Anti-lipemic effect, CS (percent cholesterol inhibition)
Procedure: as §1, §2, §3, §4

Acute toxicity = conditions: rat, in vivo
From the text: Six-week-old male Wistar rats weighing 180 to 200 g are used, 5 rats in each group. Each compound of the invention is suspended in a 30% aqueous solution of polyethylene glycol 6000 and orally given to the rat at the dosage shown in Table 2. The animals are checked for poisoning, body weight and survival to determine the LD50 value.

[1] = oral 200 mg/kg (asterisked values), plasma 2 hours after dosing, Wistar rat
[2] = plasma 2 hours after dosing, Wistar rat
[3] = oral, six-week-old male Wistar rats, suspended in 30% aqueous polyethylene glycol 6000, read-out: LD50

Row | SMILES | inhibition in vivo at 200 mg/kg (triglycerides; [1]) [%] | inhibition in vivo at 100 mg/kg (triglycerides; [2]) [%] | LD50 (Acute toxicity; po) [mg/kg] | other results
1 | CCCC(=O)COS(=O)(=O)CCCOCC [Compound 2] | 65 |  |  | 
2 | CCCC(=O)COS(=O)(=O)C1CCCCC1 [Compound 3] | 51 |  |  | 
3 | CCCC(=O)COS(=O)(=O)Cc1ccccc1 [Compound 4] |  | 68 |  | inhibition in vivo at 100 mg/kg (cholesterol): 52%
4 | CCCC(=O)COS(=O)(=O)c1ccccc1 [Compound 6, 2-oxopentylbenzene sulfonate] |  | 90 |  | LD50 (Acute toxicity; [3]): > 1000 mg/kg; inhibition in vivo at 100 mg/kg (cholesterol): 53%
5 | CCCCC(=O)COS(=O)(=O)c1ccccc1 [Compound 7] |  | 98 |  | inhibition in vivo at 100 mg/kg (cholesterol): 67%
6 | CC(C)(C)CC(=O)COS(=O)(=O)c1ccccc1 [Compound 11] |  | 80 | > 3000 | inhibition in vivo at 100 mg/kg (cholesterol): 53%
7 | CC(C)CCC(=O)COS(=O)(=O)c1ccccc1 [Compound 12] |  | 95 | > 2500 | inhibition in vivo at 100 mg/kg (cholesterol): 63%
8 | CC=CC(=O)COS(=O)(=O)c1ccccc1 [Compound 13] |  | 72 |  | 
9 | CCC(=O)COS(=O)(=O)c1ccc(C)cc1 [Compound 15] |  | 40 | > 1500 | inhibition in vivo at 100 mg/kg (cholesterol): 41%
10 | CCCC(=O)COS(=O)(=O)c1ccc(C)cc1 [Compound 16, 2-oxopentyl-p-toluenesulfonate] |  | 64 |  | LD50 (Acute toxicity; [3]): > 1500 mg/kg; inhibition in vivo at 100 mg/kg (cholesterol): 31%
11 | CCCCC(=O)COS(=O)(=O)c1ccc(C)cc1 [Compound 17] |  | 61 | > 2000 | inhibition in vivo at 100 mg/kg (cholesterol): 33%
12 | CCCCCCCC(=O)COS(=O)(=O)c1ccc(C)cc1 [Compound 20] |  | 71 | > 3000 | inhibition in vivo at 100 mg/kg (cholesterol): 47%
13 | CCCCCCCCC(=O)COS(=O)(=O)c1ccc(C)cc1 [Compound 21] | 70 |  | > 3000 | Anti-lipemic effect, CS (percent cholesterol inhibition), asterisked (cholesterol; oral 200 mg/kg (asterisked values)): 43%
14 | CCCCCCCCCC(=O)COS(=O)(=O)c1ccc(C)cc1 [Compound 22] | 62 |  | > 3000 | 
15 | CCCCCCCCCCC(=O)COS(=O)(=O)c1ccc(C)cc1 [Compound 23] | 64 |  | > 3000 | 
16 | CCCCCCCCCCCCC(=O)COS(=O)(=O)c1ccc(C)cc1 [Compound 24] | 63 |  | > 3000 | 
17 | CCCCCCCCCCCCCCC(=O)COS(=O)(=O)c1ccc(C)cc1 [Compound 25] | 62 |  | > 3000 | 
18 | Cc1ccccc1S(=O)(=O)OCC(=O)CCCCCCC(C)C [Compound 33] | 67 |  | > 3000 | 
19 | CCCCCCCCCCCC(=O)COS(=O)(=O)c1ccc(OC)cc1 [Compound 39] | 58 |  | > 4000 | 
20 | C=CCCCCCCCCC(=O)COS(=O)(=O)c1ccc(OC)cc1 [Compound 42] | 57 |  | > 4000 | 

Row | SMILES | inhibition in vivo at 200 mg/kg (triglycerides; [1]) [%] | inhibition in vivo at 100 mg/kg (triglycerides; [2]) [%] | LD50 (Acute toxicity; po) [mg/kg] | other results
21 | CCCCOc1ccc(S(=O)(=O)OCC(=O)CCCC)cc1 [Compound 54] |  | 48 | > 2000 | 
22 | CCCCCCCCCC(=O)COS(=O)(=O)c1ccc(OCCCC)cc1 [Compound 57] | 52 |  | > 4000 | 
23 | CCCCOc1ccc(S(=O)(=O)OCC(=O)CCC(C)C)cc1 [Compound 58] | 61 |  | > 4000 | 
24 | CCCC(=O)COS(=O)(=O)c1ccc(O)cc1 [Compound 59] |  | 70 | > 3000 | 
25 | CCCCCC(=O)COS(=O)(=O)c1ccc(O)cc1 [Compound 60] |  | 83 | > 3000 | 
26 | CCCCCCCCC(=O)COS(=O)(=O)c1ccc(O)cc1 [Compound 61] |  | 67 | > 3000 | 
27 | CCC(C)C(=O)COS(=O)(=O)c1ccc(O)cc1 (stereo not drawn) [Compound 63] |  | 76 | > 2000 | 
28 | CCCCCCC(=O)COS(=O)(=O)c1ccc(Cl)cc1 [Compound 67] |  | 80 | > 2000 | 
29 | CCCCCCCCCC(=O)COS(=O)(=O)c1ccc(Cl)cc1 [Compound 68, 2-oxo-undecyl-p-chlorobenzene sulfonate] |  | 62 |  | LD50 (Acute toxicity; [3]): > 3000 mg/kg
30 | CCCCCCCCCCC(=O)COS(=O)(=O)c1ccc(Cl)cc1 [Compound 69] | 77 |  | > 3000 | 
31 | CC(=O)COS(=O)(=O)c1c(C)cc(C)cc1C [Compound 71] |  | 60 |  | inhibition in vivo at 100 mg/kg (cholesterol): 82%
32 | CCCCCCCCCC(=O)COS(=O)(=O)c1c(C)cc(C)cc1C [Compound 79] | 61 |  | > 4000 | 
33 | CCCCCCCCCCCC(=O)COS(=O)(=O)c1c(C)cc(C)cc1C [Compound 81] | 60 |  | > 4000 | 
34 | CCCCC(CC)C(=O)COS(=O)(=O)c1c(C)cc(C)cc1C (stereo not drawn) [Compound 84] |  | 59 | > 4000 | 
35 | Cc1cc(C)c(S(=O)(=O)OCC(=O)CCCCCCC(C)C)c(C)c1 [Compound 85] |  | 48 | > 4000 | 
36 | CCCCC=CCC(=O)COS(=O)(=O)c1c(C)cc(C)cc1C [Compound 87] | 57 |  |  | 
37 | C=CCCCCCCCCC(=O)COS(=O)(=O)c1c(C)cc(C)cc1C [Compound 88] | 66 |  | > 4000 | 
38 | CCCC(=O)COS(=O)(=O)c1c(C)c(C)cc(C)c1C [Compound 89] | 56 |  | > 3000 | 
39 | CCCCCCCC(=O)COS(=O)(=O)c1c(C)c(C)cc(C)c1C [Compound 91] | 47 |  | > 3000 | 
40 | CCCCCCCCCCC(=O)COS(=O)(=O)c1c(C)c(C)cc(C)c1C [Compound 92] | 43 |  |  | LD50 (Acute toxicity; [3]): > 3000 mg/kg

Row | SMILES | inhibition in vivo at 200 mg/kg (triglycerides; [1]) [%] | inhibition in vivo at 100 mg/kg (triglycerides; [2]) [%] | LD50 (Acute toxicity; po) [mg/kg] | other results
41 | C=CCCC(=O)COS(=O)(=O)c1c(C)c(C)cc(C)c1C [Compound 93] | 60 |  | > 3000 | 
42 | Cc1cc(C)c(C)c(S(=O)(=O)OCC(=O)CCCCCCC(C)C)c1C [Compound 94] | 51 |  | > 3000 | 
43 | CCCC(=O)COS(=O)(=O)c1cccc(C(=O)O)c1 [Compound 102] | 42 |  | > 3000 | 
44 | CCCC(=O)COS(=O)(=O)c1ccc(NC(C)=O)cc1 [Compound 103] | 51 |  | > 3000 | 
45 | CCCCCCCCCCCCc1ccc(S(=O)(=O)OCC(=O)CCC)cc1 [Compound 104] | 56 |  | > 3000 | 
46 | CCCC(=O)COS(=O)(=O)c1ccccc1C1OCCO1 [Compound 105] | 55 |  | > 3000 | 
47 | CCCC(=O)COS(=O)(=O)c1ccc([N+](=O)[O-])cc1 [Compound 106] | 60 |  |  | 
48 | CCCC(=O)COS(=O)(=O)c1cc(Cl)ccc1Cl [Compound 107] |  | 75 | > 1500 | 
49 | CCCC(=O)COS(=O)(=O)c1ccc(C)c(Cl)c1 [Compound 108] |  | 64 | > 1500 | 
50 | CCCC(=O)COS(=O)(=O)c1ccc(Cl)cc1O [Compound 109] | 82 |  | > 2000 | 
51 | CCCC(=O)COS(=O)(=O)c1ccc(O)c(OC)c1 [Compound 110] |  | 70 |  | 
52 | CCCC(=O)COS(=O)(=O)c1cc(Cl)c(Cl)cc1Cl [Compound 113] |  | 60 | > 1500 | 
53 | CCCC(=O)COS(=O)(=O)c1c(C(C)C)cc(C(C)C)cc1C(C)C [Compound 115] | 67 |  | > 3000 | 
54 | CCCC(=O)COS(=O)(=O)c1c(C)c(C)c(C)c(C)c1C [Compound 118] | 76 |  | > 3000 | 
55 | CCCC(=O)COS(=O)(=O)c1cc(Br)ccc1OC [Compound 119] |  | 67 | > 2000 | 
56 | CCCC(C)CC(=O)COS(=O)(=O)c1ccc(OCC)cc1 (stereo not drawn) [Compound 142] |  | 47 | > 4000 | 
57 | CCOc1ccc(S(=O)(=O)OCC(=O)CCC(CC)CC)cc1 [Compound 144] |  |  |  | inhibition in vivo at 200 mg/kg (triglycerides; Rattus norvegicus, po, 2 h): 55%; LD50 (Acute toxicity; [3]): > 4000 mg/kg
58 | CCOc1ccc(S(=O)(=O)OCC(=O)CCC2CCCCC2)cc1 [Compound 174] |  |  |  | TG (percent triglycerides inhibition), Table 3 (triglycerides; Table 3, dose not given): 100%
